Consider 1 compound from US20260193295A1, “CILAGICIN COMPOUNDS AND METHODS OF USE THEREOF” (priority 2022, published 2026).

One series relates to HEK293 cells. Format: cell-based, human. The protocol:
The cytotoxicity of […] analogs was tested using an MTT (3-(4,5-Dimethyl-2-thiazolyl)-2,5-diphenyl-2H-tetrazolium bromide) assay as previously described ([…] et al., 2006, […]7). HEK293 cells were seeded in a 96-well plate with a density of 5,000 cells/well and cultured in Dulbecco's Modified Eagle Medium (DMEM) supplemented with 10% fetal bovine serum, 1% Pen/Strep and 1% glutamate for 24 hours at 37° C. with 5% CO2. […] After 48 hours of incubation, the media was removed and 110 μL of freshly prepared MTT solution (0.45 mg/mL in DPBS) was added to each well. The plates were incubated for 3 hours at 37° C. with 5% C02 after which the MTT solution was removed by aspiration. […] The absorbance of each well was measured at OD570nm using a microplate reader (Infinite 200 PRO, Tecan). […] All the experiments were performed in triplicates (n=3) and repeated two independent times (n=2).

The subject of another series is S. pyrogens ATCC19615. Kind of series: Neutropenic thigh infection model in mice. Type of series: in vivo, Streptococcus pyrogens. Conditions: neutropenic mouse thigh model.
Another series relates to S. aureus USA300. The series is described as follows: Neutropenic thigh infection model in mice. Type of series: in vivo, Staphylococcus aureus. Conditions: neutropenic mouse thigh model, S. aureus USA300, 40 mg/kg thrice daily (TID) IP, 24 hours post infection. The protocol: Mice were randomly housed in individually ventilated cages (IVC). The room was set on a twelve-hour light cycle and the temperature was set to 70° F. The humidity was set to 30%. To initiate the neutropenic model, mice were injected with 150 mg/kg and 100 mg/kg of cyclophosphamide via intraperitoneal (IP) injection on days −4 and −1, respectively. On day −1, a single colony of S. aureus USA300 was grown in 15 mL of cation adjusted Mueller Hinton (MH) broth at 37° C. with shaking overnight. On day 0, cells were centrifuged, washed twice in 0.9% sterile saline, and resuspended in sterile 0.9% saline solution to give final optical density (600 nm) of 0.1. 50 μL of bacteria suspension was injected into both thighs via intramuscular (IM) injection. This provides a challenge inoculum of approximately 1.0×10^6 CFU in each thigh in a volume of 50 μL. At 2 hours post infection, mice were given 200 μL of vehicle (10% DMSO), vancomycin (40 mg/kg, 10% DMSO) or cilagicin BP (40 mg/kg, 10% DMSO) at 2, 10, and 18 hours post infection via IP injection. Mice in the pretreatment group (n=4 mice/n=8 thighs) were humanely euthanized by CO2 narcosis to determine the starting thigh bacterial burden. […] All graphic data are expressed as data points by group and were statistically analyzed using Prism software (Prism 9). […]

The subject of series [1] is red blood cell (5% sheep blood agar plate). Format: cell-based. The protocol:
The hemolytic activity of cilagicin was evaluated using a red blood cell disc diffusion assay. Cilagicin and other test compounds were dissolved in 10% DMSO to give concentrations ranging from 100 μg/mL to 12.5 μg/mL. 10% (v/v) Triton X-100 and 10% DMSO were used as positive and vehicle controls, respectively. 20 μL of each serially diluted compound was infused on a sterile disc. Infused discs were overlaid on the surface of a 5% sheep blood agar plate (Hardy diagnostics, USA) and incubated at 20° C. for 24 hours. The size of the transparent ring that appeared in the agar plate was measured to determine hemolytic activity. Experiments were performed two independent times. A representative picture was taken of one experiment.

Another series relates to Staphylococcus aureus. Type of series: cell-based. As for the experimental part: (§1) MIC assay were conducted using the protocol recommended by the Clinical and Laboratory Standards Institute.(37) Culture conditions (temperature, medium) are detailed in Table 3. All compounds were dissolved in sterile DMSO (ATCC, USA) to give a concentration of 6.4 mg/mL. Vancomycin hydrochloride was used as positive controls. Tested compounds were serially diluted across 96-well plates using a 2-fold serial dilution in a volume of 50 μL. An overnight culture of an assay strain was diluted 5,000-fold in fresh medium. 50 μL of this dilution was added into each well, giving a final volume of 100 μL in each well. Compounds were assayed at concentrations ranging from 64 μg/mL to 0.06 μg/mL. The top and bottom rows of each plate were filled with 100 μL of media to avoid edge effects. […] For Clostridium difficile plates were statically incubated under anaerobic conditions (Vinyl anaerobic chamber, 37° C., 5% H2, 5% CO2, 90% N2). For Streptococcus pneumoniae plates were statically incubated under aerobic conditions supplemented with 5% C02 (37° C.). All MICs were performed in technical duplicate (n=2) and repeated three independent times (n=3).

For the next series, the system named is Streptococcus pyrogens. Type of series: cell-based. The protocol: as §1
The next series concerns Enterococcus faecium. Format: cell-based. The protocol:
as §1

The subject of another series is Streptococcus agalactiae. Type of series: cell-based. As for the experimental part: as §1
The test system of the next series is Streptococcus pneumoniae. Format: cell-based. The protocol: as §1
The test system of a further series is Clostridium difficile. The series is described as follows: MIC assay (broth microdilution). Format: cell-based. The conditions noted are these: C. difficile HM89. The protocol: as §1
Background: Broth dilution looks for growth in wells or tubes with falling amounts of substance.

Converted amounts (≈) assume the structure as drawn. Positions of bridges follow the written chain, without caps; N, C: chain ends. Non-standard residues stand in square brackets, D forms with d. Residues, ends and D or L forms follow the SMILES beside them. *: point of attachment. Benzoyl(4-Ph) = O=C(c1ccc(-c2ccccc2)cc1)*; dDab = NCC[C@@H](N)C(=O)O; Dab = NCC[C@H](N)C(=O)O Some results are limits rather than exact numbers.

Broadly, the MIC is the smallest concentration in the dilution series that meets the test's criterion for growth inhibition. `CC(C)[C@@H]1NC(=O)[C@H](Cc2ccc(O)cc2)NC(=O)CNC(=O)[C@@H](CC(=O)O)NC(=O)[C@@H](CC(N)=O)NC(=O)CNC(=O)[C@H](CC(=O)O)NC(=O)[C@@H](CCN)NC(=O)[C@@H](NC(=O)[C@@H](CO)NC(=O)c2ccc(-c3ccccc3)cc2)[C@@H](C)OC(=O)[C@H](Cc2ccccc2)NC(=O)[C@H](CCN)NC1=O` [Cilagicin BP] ({Benzoyl(4-Ph)}-[dS]T[dDab]DG[dN][dD]GYV[Dab]F; ester 2-C): the human cell cytotoxicity entry with HEK293 cells is reported as “no human cell cytotoxicity”. For the same compound, in the series with S. pyrogens ATCC19615 (S. pyrogens ATCC19615, 40 mg/kg TID IP, 24 hours post infection), the “reduction in bacterial burden compared to the vehicle control” value is given as more than 5 log10. In addition, the “reduction of bacterial burden compared with vancomycin” value in the series with S. pyrogens ATCC19615 (S. pyrogens, both 40 mg/kg TID) is on record as “more than a log greater reduction of bacterial burden than vancomycin”. In addition, in the series with S. aureus USA300, the “reduction in colony forming units (CFU) compared to the vehicle control” value is recorded as approximately 4 log10. Moreover, in series [1], the hemolytic activity result is on record as “no hemolytic activity”. Moreover, the MIC was 4 mg/L (≈ 2.78 µM) in the series with Staphylococcus aureus; 1 mg/L (≈ 0.696 µM) against Streptococcus pyrogens; more than 64 mg/L in the series with Enterococcus faecium; 16 mg/L (≈ 11.1 µM) against Streptococcus agalactiae; 4 mg/L (≈ 2.78 µM) in the series on Streptococcus pneumoniae; 16 mg/L (≈ 11.1 µM) in the series with Clostridium difficile. The “antibacterial activity (MIC) in the presence of serum” value in the series with Staphylococcus aureus (S. aureus, presence versus absence of serum (10% serum)) was “no increase in MIC”.
